From patent publication US20240270762A1, “PENICILLIN-BINDING PROTEIN INHIBITORS” (priority 2021, published 2024)
In brackets after ≈: the same amount, converted by molar mass.

Columns and labels:
K. pneumoniae SI-117 = test: microbe, parasite or virus in culture; format: cell-based; settings: Klebsiella pneumoniae, SI117, read-out: MIC K. pneumoniae SI-117
[1] = test system: P. aeruginosa (ΔmexAB-oprM); test: Broth microdilution MIC in CAMHB; format: cell-based; settings: Pseudomonas aeruginosa; read-out: MIC P. aeruginosa ΔmexAB-oprM
E. coli D22 = test: microbe, parasite or virus in culture; format: cell-based; settings: Escherichia coli, D22, read-out: MIC E. coli D22
N. gonorrhoeae WHO M = test: Liquid broth MIC in Fastidious broth; settings: Neisseria gonorrhoeae, read-out: Minimum Inhibitory Concentration (MIC), N. gonorrhoeae WHO M
E. coli AG100A = test: Broth microdilution MIC in CAMHB; format: cell-based; settings: Escherichia coli, read-out: MIC E. coli AG100A
N. gonorrhoeae WHO X = test: Liquid broth MIC in Fastidious broth; settings: Neisseria gonorrhoeae, read-out: Minimum Inhibitory Concentration (MIC), N. gonorrhoeae WHO X
P. aeruginosa ATCC 35151 = test: microbe, parasite or virus in culture; format: cell-based; settings: Pseudomonas aeruginosa, ATCC35151, read-out: MIC P. aeruginosa ATCC 35151
[2] = test system: N. gonorrhoeae ATCC 49226; test: Liquid broth MIC in Fastidious broth; settings: Neisseria gonorrhoeae, ATCC49226, read-out: Minimum Inhibitory Concentration (MIC), N. gonorrhoeae ATCC 49226
N. gonorrhoeae WHO K = test: Liquid broth MIC in Fastidious broth; settings: Neisseria gonorrhoeae, read-out: Minimum Inhibitory Concentration (MIC), N. gonorrhoeae WHO K
K. pneumoniae 848844 = test: microbe, parasite or virus in culture; format: cell-based; settings: Klebsiella pneumoniae, 848844, read-out: MIC K. pneumoniae 848844
N. gonorrhoeae WHO Q = test: Liquid broth MIC in Fastidious broth; settings: Neisseria gonorrhoeae, read-out: Minimum Inhibitory Concentration (MIC), N. gonorrhoeae WHO Q
N. gonorrhoeae CDC-0197 = test: Liquid broth MIC in Fastidious broth; settings: Neisseria gonorrhoeae, CDC0197, read-out: Minimum Inhibitory Concentration (MIC), N. gonorrhoeae CDC-0197
E. coli ATCC 25922 = test: microbe, parasite or virus in culture; format: cell-based; settings: Escherichia coli, ATCC25922, read-out: MIC E. coli 25922
N. gonorrhoeae WHO G = test: Liquid broth MIC in Fastidious broth; settings: Neisseria gonorrhoeae, read-out: Minimum Inhibitory Concentration (MIC), N. gonorrhoeae WHO G
[3] = biological target: T1, PBP3 from Pseudomonas aeruginosa (PAO1) (Pseudomonas aeruginosa, UniProt G3XD46); test: Bocillin-FL fluorescence polarization competition binding, P. aeruginosa PBP3; settings: Binding affinity to P. aeruginosa PBP3; fluorescence polarization competition binding assay using Bocillin-FL; read-out: P. aeruginosa PBP3 Potency
T1 construct: made in house
T1 sequence (G3XD46 whole entry): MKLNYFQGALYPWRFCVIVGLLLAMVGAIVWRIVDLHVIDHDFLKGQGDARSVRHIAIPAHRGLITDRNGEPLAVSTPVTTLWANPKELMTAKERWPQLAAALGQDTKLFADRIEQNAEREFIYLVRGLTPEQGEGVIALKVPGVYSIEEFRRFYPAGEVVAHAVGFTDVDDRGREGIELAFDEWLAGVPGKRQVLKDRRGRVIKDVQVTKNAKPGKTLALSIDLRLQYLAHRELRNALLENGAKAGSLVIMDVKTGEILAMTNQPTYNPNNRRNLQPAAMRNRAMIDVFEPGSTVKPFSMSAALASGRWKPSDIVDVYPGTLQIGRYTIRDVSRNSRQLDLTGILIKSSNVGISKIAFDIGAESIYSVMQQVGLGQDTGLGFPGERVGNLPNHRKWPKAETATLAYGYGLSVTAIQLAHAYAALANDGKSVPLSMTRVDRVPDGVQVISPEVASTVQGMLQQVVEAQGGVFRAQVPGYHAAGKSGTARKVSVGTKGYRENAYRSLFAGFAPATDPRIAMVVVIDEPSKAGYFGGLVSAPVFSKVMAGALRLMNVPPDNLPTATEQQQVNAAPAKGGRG
Outline: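 Purified PBPs pre-incubated with inhibitor (E. coli PBP3 1.5 μM, 30 min; P. aeruginosa PBP3 0.75 μM, A. baumannii PBP1a 1 μM and PBP3 0.2 μM, 15 min), then Bocillin-FL 0.1 μM (0.05 μM for PBP1a) added; FP read up to 60 min. EC50 = concentration halving bound Bocillin-FL.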

N. gonorrhoeae FA1090 = test: Liquid broth MIC in Fastidious broth; settings: Neisseria gonorrhoeae, FA1090, read-out: Minimum Inhibitory Concentration (MIC), N. gonorrhoeae FA 1090

Row | Structure (SMILES) | MIC (K. pneumoniae SI-117) [µg/mL] | MIC [1] [µg/mL] | MIC (E. coli D22) [µg/mL] | MIC (N. gonorrhoeae WHO M) [µg/mL] | MIC (E. coli AG100A) [µg/mL] | MIC (N. gonorrhoeae WHO X) [µg/mL] | MIC (P. aeruginosa ATCC 35151) [µg/mL] | MIC [2] [µg/mL] | MIC (N. gonorrhoeae WHO K) [µg/mL] | MIC (K. pneumoniae 848844) [µg/mL] | MIC (N. gonorrhoeae WHO Q) [µg/mL] | MIC (N. gonorrhoeae CDC-0197) [µg/mL] | MIC (E. coli ATCC 25922) [µg/mL] | MIC (N. gonorrhoeae WHO G) [µg/mL] | IC50 [3] [µM] | MIC (N. gonorrhoeae FA1090) [µg/mL]
1 | O=C(O)c1cccc2c1OB(O)[C@@H](NC(=O)[C@H](NC(=O)c1cccn(C(F)F)c1=O)c1ccc(P(=O)(O)O)cc1)C2 (single isomer, unassigned) [Example 191] | > 128 | 8 to 16 (≈ 13.5 to 27.1 µM) | 8 to 16 (≈ 13.5 to 27.1 µM) | < 1 | 32 to 64 (≈ 54.1 to 108 µM) | 16 to 32 (≈ 27.1 to 54.1 µM) | < 1 | 1 to 2 (≈ 1.69 to 3.38 µM) | 4 to 8 (≈ 6.77 to 13.5 µM) | > 128 | 1 to 2 (≈ 1.69 to 3.38 µM) | 1 to 2 (≈ 1.69 to 3.38 µM) | > 128 | < 1 | < 10 | < 1
2 | O=C(N[C@H](C(=O)N[C@H]1Cc2cccc(C(=O)O)c2OB1O)c1ccc(P(=O)(O)O)cc1)c1ccc(C(F)(F)F)cn1 (single isomer, unassigned) [Example 192] | > 128 | 32 to 64 (≈ 53.9 to 108 µM) | 8 to 16 (≈ 13.5 to 27 µM) | < 1 | 32 to 64 (≈ 53.9 to 108 µM) | 16 to 32 (≈ 27 to 53.9 µM) | 8 to 16 (≈ 13.5 to 27 µM) | 1 to 2 (≈ 1.69 to 3.37 µM) | 4 to 8 (≈ 6.74 to 13.5 µM) | > 128 | 1 to 2 (≈ 1.69 to 3.37 µM) | 1 to 2 (≈ 1.69 to 3.37 µM) | > 128 | 1 to 2 (≈ 1.69 to 3.37 µM) | < 10 | < 1
3 | O=C(N[C@@H](C(=O)N[C@H]1Cc2cccc(C(=O)O)c2OB1O)c1ccc(P(=O)(O)O)cc1)c1ccc(C(F)(F)F)cn1 (single isomer, unassigned) [Example 193] | > 128 | 32 to 64 (≈ 53.9 to 108 µM) | 2 to 4 (≈ 3.37 to 6.74 µM) | < 1 | 8 to 16 (≈ 13.5 to 27 µM) | 4 to 8 (≈ 6.74 to 13.5 µM) | 2 to 4 (≈ 3.37 to 6.74 µM) | < 1 | 1 to 2 (≈ 1.69 to 3.37 µM) | > 128 | 1 to 2 (≈ 1.69 to 3.37 µM) | < 1 | 32 to 64 (≈ 53.9 to 108 µM) | < 1 | < 10 | < 1
4 | O=C(O)c1cccc2c1OB(O)[C@@H](NC(=O)[C@@H](NC(=O)c1cnc3sccn3c1=O)c1ccc(P(=O)(O)O)cc1)C2 (single isomer, unassigned) [Example 194] | > 128 | 32 to 64 (≈ 53.5 to 107 µM) | 32 to 64 (≈ 53.5 to 107 µM) | 4 to 8 (≈ 6.69 to 13.4 µM) | > 128 | 16 to 32 (≈ 26.7 to 53.5 µM) | 2 to 4 (≈ 3.34 to 6.69 µM) | 4 to 8 (≈ 6.69 to 13.4 µM) | 16 to 32 (≈ 26.7 to 53.5 µM) | > 128 | 16 to 32 (≈ 26.7 to 53.5 µM) | 16 to 32 (≈ 26.7 to 53.5 µM) | > 128 | 4 to 8 (≈ 6.69 to 13.4 µM) | < 10 | 1 to 2 (≈ 1.67 to 3.34 µM)
5 | O=C(O)c1cccc2c1OB(O)[C@@H](NC(=O)[C@H](NC(=O)c1cnc3sccn3c1=O)c1ccc(P(=O)(O)O)cc1)C2 (single isomer, unassigned) [Example 195] | > 128 | 8 to 16 (≈ 13.4 to 26.7 µM) | 8 to 16 (≈ 13.4 to 26.7 µM) | 1 to 2 (≈ 1.67 to 3.34 µM) | > 128 | 16 to 32 (≈ 26.7 to 53.5 µM) | < 1 | 4 to 8 (≈ 6.69 to 13.4 µM) | 16 to 32 (≈ 26.7 to 53.5 µM) | > 128 | 4 to 8 (≈ 6.69 to 13.4 µM) | 4 to 8 (≈ 6.69 to 13.4 µM) | > 128 | 1 to 2 (≈ 1.67 to 3.34 µM) | < 10 | < 1
6 | O=C(O)c1c(F)ccc2c1OB(O)[C@@H](NC(=O)C(NC(=O)N1CCN(Cc3ccc(O)c(O)c3Cl)C(=O)C1=O)c1ccc(P(=O)(O)O)cc1)C2 (stereo partly drawn) [Example 8, (3R)-3-(2-(4-(2-chloro-3,4-dihydroxybenzyl)-2,3-dioxopiperazine-1-carboxamido)-2-(4-phosphonophenyl)acetamido)-7-fluoro-2-hydroxy-3,4-dihydro-2H-benzo[e][1,2]oxaborinine-8-carboxylic acid] | 8 to 16 (≈ 10.9 to 21.8 µM) | < 1 | < 1 | < 1 | < 1 | 4 to 8 (≈ 5.44 to 10.9 µM) | < 1 | < 1 | 1 to 2 (≈ 1.36 to 2.72 µM) | > 128 | < 1 | 1 to 2 (≈ 1.36 to 2.72 µM) | 2 to 4 (≈ 2.72 to 5.44 µM) | < 1 | < 10 | < 1
7 | CS(=O)(=O)N1CCN(C(=O)NC(C(=O)N[C@H]2Cc3cccc(C(=O)O)c3OB2O)c2ccc(P(=O)(O)O)c(Cl)c2)C1=O (stereo partly drawn) [Example 11, (3R)-3-(2-(3-chloro-4-phosphonophenyl)-2-(3-(methylsulfonyl)-2-oxoimidazolidine-1-carboxamido)acetamido)-2-hydroxy-3,4-dihydro-2H-benzo[e][1,2]oxaborinine-8-carboxylic acid] | > 128 | 32 to 64 (≈ 49.6 to 99.3 µM) | 8 to 16 (≈ 12.4 to 24.8 µM) | < 1 | 8 to 16 (≈ 12.4 to 24.8 µM) | 1 to 2 (≈ 1.55 to 3.1 µM) | 8 to 16 (≈ 12.4 to 24.8 µM) | < 1 | < 1 | > 128 | < 1 | < 1 | 32 to 64 (≈ 49.6 to 99.3 µM) | < 1 | < 10 | < 1
8 | CS(=O)(=O)N1CCN(C(=O)NC(C(=O)N[C@H]2Cc3cccc(C(=O)O)c3OB2O)c2ccc(P(=O)(O)O)c(F)c2)C1=O (stereo partly drawn) [Example 12, (3R)-3-(2-(3-fluoro-4-phosphonophenyl)-2-(3-(methylsulfonyl)-2-oxoimidazolidine-1-carboxamido)acetamido)-2-hydroxy-3,4-dihydro-2H-benzo[e][1,2]oxaborinine-8-carboxylic acid] | > 128 | 32 to 64 (≈ 50.9 to 102 µM) | 2 to 4 (≈ 3.18 to 6.37 µM) | < 1 | 8 to 16 (≈ 12.7 to 25.5 µM) | < 1 | 8 to 16 (≈ 12.7 to 25.5 µM) | < 1 | < 1 | > 128 | < 1 | < 1 | 32 to 64 (≈ 50.9 to 102 µM) | < 1 | < 10 | < 1
9 | NC(C(=O)N[C@H]1Cc2ccc(F)c(C(=O)O)c2OB1O)c1ccc(P(=O)(O)O)cc1 (stereo partly drawn) [Example 14, (3R)-3-(2-amino-2-(4-phosphonophenyl)acetamido)-7-fluoro-2-hydroxy-3,4-dihydro-2H-benzo[e][1,2]oxaborinine-8-carboxylic acid] | > 128 | > 128 | > 128 | > 64 | > 128 | > 64 | > 128 | > 64 | > 64 | > 128 | > 64 | > 64 | > 128 | > 64 | > 250 | > 64
10 | CS(=O)(=O)N1CCN(C(=O)N[C@@H](C(=O)N[C@H]2Cc3ccc(F)c(C(=O)O)c3OB2O)c2ccc(P(=O)(O)O)c(F)c2F)C1=O [Example 16, (R)-3-((R)-2-(2,3-difluoro-4-phosphonophenyl)-2-(3-(methylsulfonyl)-2-oxoimidazolidine-1-carboxamido)acetamido)-7-fluoro-2-hydroxy-3,4-dihydro-2H-benzo[e][1,2]oxaborinine-8-carboxylic acid] | > 128 | > 128 | 8 to 16 (≈ 12 to 24.1 µM) | < 1 | 32 to 64 (≈ 48.2 to 96.3 µM) | < 1 | 2 to 4 (≈ 3.01 to 6.02 µM) | < 1 | < 1 | > 128 | < 1 | < 1 | > 128 | < 1 | < 10 | < 1
11 | CS(=O)(=O)N1CCN(C(=O)NC(C(=O)N[C@H]2Cc3cccc(C(=O)O)c3OB2O)c2ccc(P(=O)(O)O)c(O)c2)C1=O (stereo partly drawn) [Example 17, (3R)-2-hydroxy-3-(2-(3-hydroxy-4-phosphonophenyl)-2-(3-(methylsulfonyl)-2-oxoimidazolidine-1-carboxamido)acetamido)-3,4-dihydro-2H-benzo[e][1,2]oxaborinine-8-carboxylic acid] | > 128 | 8 to 16 (≈ 12.8 to 25.5 µM) | 2 to 4 (≈ 3.19 to 6.39 µM) | < 1 | 8 to 16 (≈ 12.8 to 25.5 µM) | < 1 | < 1 | < 1 | < 1 | > 128 | < 1 | < 1 | 32 to 64 (≈ 51.1 to 102 µM) | < 1 | < 10 | < 1
